The subject of this assay is rat PCA. As to the kind of experiment: Passive cutaneous anaphylaxis (PCA) in rats. Type of assay: in vivo. The settings on record: iv, 0 h, carrier PBS with NaHCO3, time 0 mins between administration and antigen challenge. Here is the method: Serum containing heat labile homocytotropic antibody was raised in rats to crystallised ovalbumin (Grade 3 Sigma) by the Method of I. Mota (Immunology 7, 681 (1964)) using Bordetella pertussis vaccine ([…] Burroughs Welcome) as adjuvant.
Passive cutaneous anaphylaxis (PCA) was carried out by a method based on that of Ovary and Bier, (Proc. Soc. Exp. Bio. Med., 81; 584 (1952)) as modified by Goose and Blair (Immunology, 16, 749 (1969)) Male Sprague Dawley rats 230 - 340 gm were given 0.1 ml of each of six two fold serial dilutions of pooled antiserum in 0.9% saline (Polyfusor Boots) injected intradermally into separate sites on their shaved backs. 72 Hours later the rats were challenged by intravenous injection of 0.3 ml of a 1% solution of ovalbumin in isotonic saline buffered with 0.05M, pH 7.2 Sorenson Buffer (Bactohaemagglutination buffer Difco Laboratories), mixed with 0.2 ml of a 5% solution of Pontamine Sky Blue (6 BX C.l. 24410 Raymond A Lamb) in isotonic saline. The rats were killed after 20 minutes and the diameter of the blue wheals at the antibody injection sites was measured on the outer surface of the skin. The starting dilution of the serum was adjusted so that there was no response, after challenge, at the injection site of the highest dilution and a maximum response at the lowest dilutions. Typically, six twofold serial dilutions of the serum from 1/4 to 1/128 were used.
Compounds were tested for their ability to reduce the diameter of the wheals at those intradermal sites which in control animals gave less than maximum response. Each dose of the compounds was administered to six rats at a measured time prior to intravenous challenge with ovalbumin. Control groups of six rats were given the same volume (0.2 ml: 100g^-1)of carrier fluid at the same time prior to the challenge.
The results were calculated as follows: % inhibition of PCA = 100 (1 - a/b) where a = the sum of the diameters of the wheals produced in the test animal at the sites of antibody dilutions as used in control groups and b = the mean sum of the diameters of the wheals produced in the control group of animals at those antibody sites where at least five out of six of the animals gave less than maximum response. A typical variation in the control group of animals was SEM+ 6%.

On to `O=c1c2ccccc2[s+]([O-])c2nn[nH]c12` (racemic) [Example 9b, 9-Oxo-lH,9H-benzothiopyrano[2,3-dl-v-triazole-4-oxide], for which the inhibition in vivo at 0.5 mg/kg was 30% and 2 mg/kg produced 61% inhibition in vivo. `O=c1c2ccccc2sc2nn[nH]c12` [Example 1f, 9-Oxo-1H,9H-benzothiopyrano[2,3-d]-v-triazole] had an inhibition in vivo at 1 mg/kg of 35% and an inhibition in vivo at 10 mg/kg of 90%. `O=C1c2ccccc2S(=O)(=O)c2nn[nH]c21` [Example 2b, 9-Oxo-1H,9H-benzothiopyrano[2,3-d]-v-triazole-4,4-dioxide]: 10 mg/kg produced 68% inhibition in vivo. Compound `Cc1ccc2sc3nn[nH]c3c(=O)c2c1` [Example 3d, 7-Nethyl-9-oxo-1H,9H-benzothiopyrano[2,3-d]-v-triazole] showed an inhibition in vivo at 10 mg/kg of 42%.

Turning to `Cc1ccc2c(c1)C(=O)c1[nH]nnc1S2(=O)=O` [Example 4b, 7-Methyl-9-oxo-IH, 9H-benzothiopyrano[2,3-d]-v-triazole-4,4-dioxide], testing at 10 mg/kg gave an inhibition in vivo of 65%. In turn, `Cc1cc2sc3nn[nH]c3c(=O)c2cc1C` [Example 6d, 6,7-Dimethyl-9-oxo-1H,9H-benzothiopyrano[2,3-d]-v-triazole] came in with an inhibition in vivo at 0.5 mg/kg of 65%, an inhibition in vivo at 1 mg/kg of 86% and an inhibition in vivo at 2 mg/kg of 90%. Compound `Cc1cc2c(cc1C)S(=O)(=O)c1nn[nH]c1C2=O` [Example 7b, 6,7-Dimethyl-9-oxo-lH,9H-benzothiopyrano[2,3-d]-v-triazole-4,4-dioxide] displayed an inhibition in vivo at 0.5 mg/kg of 56%, an inhibition in vivo at 1 mg/kg of 59% and an inhibition in vivo at 2 mg/kg of 74%. `COc1ccc2sc3nn[nH]c3c(=O)c2c1` [Example 8d, 7-Methoxy-9-oxo-lH,9H-benzothiopyrano[2,3-dl-v-triazole] came in with an inhibition in vivo at 0.5 mg/kg of 34% and an inhibition in vivo at 2 mg/kg of 58%.

These data come from patent EP0059606A1, “Benzothiopyrano(2,3-d)-v-triazole derivatives and pharmaceutical compositions containing them” (BEECHAM GROUP PLC, priority 1981, dated 1982).
